For assay [1], the target named is T1, CK2 (Homo sapiens, UniProt P68400).
T1 construct: purchased New England Biolabs (Ipswich, Mass., USA)
The experiment in a line: CK2 kinase assay (CycLex CK2 kinase assay/inhibitor screening kit). It counts as biochemical. The following applies: 20 μM. How it is done: All materials were provided from a CycLex CK2 kinase assay/inhibitor screening kit (Medical and Biological Laboratories CO., LTD, Nagoya, Japan).
All specimens were prepared in triplicate.
10 μL of a diluted sample was added to a 96-well plate placed on ice.
Three wells having 10 μL of a CK2α positive control (2 unit/μL) were included as a positive control in each analysis method. CK2α was purchased from New England Biolabs (Ipswich, Mass., USA).
A phosphorylation reaction was initiated by adding 90 μL of a phosphorylation reaction buffer to each well, and the 96-well plate was covered with a plate cover. The plate was incubated at 30° C. for 30 minutes. Each well was washed with a washing buffer five times, and it was confirmed whether each well was completely filled. With gentle tapping, a residual washing solution was removed.
100 μL of HRP-conjugated detection antibodies were added to each well, and the plate was covered with a plate cover. While the plate was incubated at room temperature (25 to 30° C.) for 30 minutes, the remaining HRP-conjugated detection antibodies after use were removed. Each well was washed five times, and the residual washing buffer was removed with gentle tapping. […]
Absorbance at dual wavelengths of 450/540 nm was measured for each well using Cytation 5. Data was analyzed.

Assay [2] has as its target T2, SIRT1 (Homo sapiens, UniProt Q96EB6).
T2 construct: purchased Cayman (Ann Arbor, Mich., USA)
T2 sequence (Q96EB6 1-747): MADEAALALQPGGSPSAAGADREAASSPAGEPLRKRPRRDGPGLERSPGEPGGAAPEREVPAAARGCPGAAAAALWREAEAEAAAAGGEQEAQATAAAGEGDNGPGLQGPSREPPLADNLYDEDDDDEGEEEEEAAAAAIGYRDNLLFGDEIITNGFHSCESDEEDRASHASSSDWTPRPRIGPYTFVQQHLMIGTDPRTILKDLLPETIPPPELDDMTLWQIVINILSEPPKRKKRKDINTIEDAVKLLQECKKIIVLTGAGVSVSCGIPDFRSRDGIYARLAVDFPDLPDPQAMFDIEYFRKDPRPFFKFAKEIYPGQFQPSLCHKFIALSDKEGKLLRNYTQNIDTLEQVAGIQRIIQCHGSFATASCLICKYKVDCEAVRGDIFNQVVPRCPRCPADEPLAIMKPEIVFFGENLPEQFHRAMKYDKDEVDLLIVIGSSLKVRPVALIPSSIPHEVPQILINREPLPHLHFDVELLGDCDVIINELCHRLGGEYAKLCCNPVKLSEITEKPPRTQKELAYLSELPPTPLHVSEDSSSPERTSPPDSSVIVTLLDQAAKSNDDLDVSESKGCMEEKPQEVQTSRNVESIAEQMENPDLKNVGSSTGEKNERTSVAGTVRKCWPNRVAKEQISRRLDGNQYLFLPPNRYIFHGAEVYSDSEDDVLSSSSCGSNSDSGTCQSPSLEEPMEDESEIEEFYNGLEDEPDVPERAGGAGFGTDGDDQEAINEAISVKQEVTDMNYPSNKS
The experiment in a line: SIRT1 direct fluorescent assay. Conditions: 20 μM. It counts as biochemical. On the procedure: All materials were provided from a Sirt1 direct fluorescent screening assay kit (Cayman, Ann Arbor, Mich., USA).
SIRT1, p53 conjugated aminomethyl coumarin (AMC) protein, and 3 mM NAD^+ were added to a diluted analysis buffer (50 mM Tris-HCl, pH 8.0, 137 mM NaCl, 2.7 mM KCl, and 1 mM MgCl2).
25 μL of the analysis buffer, 5 μL of diluted SIRT1, and 5 μL of a solvent were added to each of three 100% initial activity wells of a 96-well plate.
30 μL of the analysis buffer and 5 μL of a solvent were added to each of three background wells of the 96-well plate.
25 μL of the analysis buffer, 5 μL of diluted SIRT1, and 5 μL of a diluted test compound were added to each of three sample wells of the 96-well plate. The final DMSO concentration was less than 2%.
15 μL of a 3 mM NAD^+-containing substrate solution was added to all wells to begin the reaction. The 96-well plate was covered with a plate cover, and then incubated in a shaker at room temperature (25 to 30° C.) for 45 minutes.
A stop/developing solution was prepared. To prepare the final 5 mL solution, 200 μL of nicotinamide (NAM, Sigma-Aldrich) was added to a color developing powder weighing 30 mg, 4.8 mL of a diluted analysis buffer was added thereto, and the resulting mixture was stirred until the powder became a solution.
The plate cover was removed, and 50 μL of the stop/developing solution was added to each well.
The 96-well plate was covered with a plate cover, and incubated at room temperature (25 to 30° C.) for 30 minutes.
The plate cover was removed, and the plate was read using Cytation 5 at an excitation wavelength of 360 nm and an emission wavelength of 450 nm.
The mean fluorescence of each sample was measured.
The fluorescence of the background wells was subtracted from the fluorescence of the 100% initial activity wells and sample wells.
To determine the percent of each sample, each sample value was subtracted from the 100% initial activity value, and the resulting value was divided by the 100% initial activity value and then multiplied by 100 and added to 100, which was expressed as a percentage.

T1 sequence (P68400 whole entry): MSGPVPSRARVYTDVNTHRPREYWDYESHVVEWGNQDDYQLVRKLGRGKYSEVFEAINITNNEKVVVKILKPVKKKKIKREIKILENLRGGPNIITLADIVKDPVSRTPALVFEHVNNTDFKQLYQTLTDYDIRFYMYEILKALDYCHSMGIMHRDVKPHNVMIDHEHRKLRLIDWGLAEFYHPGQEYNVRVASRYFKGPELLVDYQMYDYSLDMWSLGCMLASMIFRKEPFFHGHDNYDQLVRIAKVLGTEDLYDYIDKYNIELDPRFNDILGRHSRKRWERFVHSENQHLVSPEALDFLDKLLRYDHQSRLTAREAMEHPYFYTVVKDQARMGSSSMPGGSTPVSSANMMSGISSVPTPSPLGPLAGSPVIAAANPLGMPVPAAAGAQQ
T1 sequence (P67870 whole entry partner): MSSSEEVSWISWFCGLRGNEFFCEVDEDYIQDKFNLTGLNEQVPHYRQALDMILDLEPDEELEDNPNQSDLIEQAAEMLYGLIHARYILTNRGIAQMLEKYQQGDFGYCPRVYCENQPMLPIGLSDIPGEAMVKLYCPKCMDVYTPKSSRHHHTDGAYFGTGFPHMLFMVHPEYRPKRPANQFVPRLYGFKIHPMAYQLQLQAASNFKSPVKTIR

Take `CSc1ccc(/C=C/C=C/C(=O)N2CCCCC2)cc1` [YU2014, (2E,4E)-5-(4-(methylthio)phenyl)-1-(piperidine-1-yl)penta-2,4-dien-1-one]: the “CK2 activity (FIG. 21)” value in assay [1] is reported as “did not have a CK2 activity reducing effect”. Also, the “increase of SIRT1 activity (FIG. 18)” value in assay [2] was “about 20%”.

Source of the values: US20200157048A1, “(2E,4E)-5-PHENYL-PENTA-2,4-DIEN-1-ONE DERIVATIVE” (BIOWAY., INC, priority 2018, published 2020).
